Laboratory results: PMC11876601 (Molecular Systems Biology, 2025)

Target: T1, ATR (Homo sapiens, UniProt Q13535)
T1 construct: endogenous in cells; host or cells: AsPC-1 lysate
Assay: Kinobeads competition pulldown in AsPC-1 lysate
Type: binding
Procedure: This was followed by incubation with Kinobeads ε (17.5 µl of settled beads) for 30 min at 4 °C to enrich kinases. […] Enriched proteins were reduced with 50 mM DTT in 8 M urea, 40 mM Tris-HCl, pH 7.4 for 30 min at room temperature, and alkylated with 55 mM chloroacetamide. After reducing the urea concentration to 1–2 M, proteins were digested with trypsin at 37 °C for 16 h. Subsequently, eluted peptides were desalted using SepPak tC18 µElution plates (Waters), freeze-dried by vacuum centrifugation, and stored at −20 °C.
For LC-MS/MS, dried peptides were reconstituted in 0.1% formic acid and analyzed on a Dionex Ultimate3000 nano HPLC (Thermo Scientific) coupled to an Orbitrap Fusion Tribrid mass spectrometer (Thermo Scientific), which was run in data-dependent mode. Peptides were first delivered to a trap column (100 µm × 2 cm, packed in-house with Reprosil-Gold C18 ODS-3 5 µm resin, Dr. Maisch, Ammerbuch) and subsequently washed with solvent A0 (0.1% formic acid in HPLC grade water) at 5 µl/min for 10 min. […] For MS2, up to 12 peptide precursors were isolated (isolation width of 1.2 Th) and subjected to HCD fragmentation using 30% normalized collision energy. […] The duration of dynamic exclusion was set to 30 s.
Oxidized methionine and N-terminal acetylation were set as variable modification, and cysteine carbamidomethylation was set as fixed modification. Label-free quantification (LFQ) and match-between-runs were enabled. All searches were performed with 1% PSM and protein FDR.
Proteins were filtered by potential contaminants, reversed hits and proteins identified only by site. Residual binding of proteins was calculated from LFQ intensities as the ratio between drug doses and vehicle. […] Only kinases quantified with at least 4 unique peptides in the vehicle experiment were considered. Potential targets were further curated through manual inspection of dose-dependent reduction in MS/MS and unique peptide counts.

T1 sequence (Q13535 whole entry): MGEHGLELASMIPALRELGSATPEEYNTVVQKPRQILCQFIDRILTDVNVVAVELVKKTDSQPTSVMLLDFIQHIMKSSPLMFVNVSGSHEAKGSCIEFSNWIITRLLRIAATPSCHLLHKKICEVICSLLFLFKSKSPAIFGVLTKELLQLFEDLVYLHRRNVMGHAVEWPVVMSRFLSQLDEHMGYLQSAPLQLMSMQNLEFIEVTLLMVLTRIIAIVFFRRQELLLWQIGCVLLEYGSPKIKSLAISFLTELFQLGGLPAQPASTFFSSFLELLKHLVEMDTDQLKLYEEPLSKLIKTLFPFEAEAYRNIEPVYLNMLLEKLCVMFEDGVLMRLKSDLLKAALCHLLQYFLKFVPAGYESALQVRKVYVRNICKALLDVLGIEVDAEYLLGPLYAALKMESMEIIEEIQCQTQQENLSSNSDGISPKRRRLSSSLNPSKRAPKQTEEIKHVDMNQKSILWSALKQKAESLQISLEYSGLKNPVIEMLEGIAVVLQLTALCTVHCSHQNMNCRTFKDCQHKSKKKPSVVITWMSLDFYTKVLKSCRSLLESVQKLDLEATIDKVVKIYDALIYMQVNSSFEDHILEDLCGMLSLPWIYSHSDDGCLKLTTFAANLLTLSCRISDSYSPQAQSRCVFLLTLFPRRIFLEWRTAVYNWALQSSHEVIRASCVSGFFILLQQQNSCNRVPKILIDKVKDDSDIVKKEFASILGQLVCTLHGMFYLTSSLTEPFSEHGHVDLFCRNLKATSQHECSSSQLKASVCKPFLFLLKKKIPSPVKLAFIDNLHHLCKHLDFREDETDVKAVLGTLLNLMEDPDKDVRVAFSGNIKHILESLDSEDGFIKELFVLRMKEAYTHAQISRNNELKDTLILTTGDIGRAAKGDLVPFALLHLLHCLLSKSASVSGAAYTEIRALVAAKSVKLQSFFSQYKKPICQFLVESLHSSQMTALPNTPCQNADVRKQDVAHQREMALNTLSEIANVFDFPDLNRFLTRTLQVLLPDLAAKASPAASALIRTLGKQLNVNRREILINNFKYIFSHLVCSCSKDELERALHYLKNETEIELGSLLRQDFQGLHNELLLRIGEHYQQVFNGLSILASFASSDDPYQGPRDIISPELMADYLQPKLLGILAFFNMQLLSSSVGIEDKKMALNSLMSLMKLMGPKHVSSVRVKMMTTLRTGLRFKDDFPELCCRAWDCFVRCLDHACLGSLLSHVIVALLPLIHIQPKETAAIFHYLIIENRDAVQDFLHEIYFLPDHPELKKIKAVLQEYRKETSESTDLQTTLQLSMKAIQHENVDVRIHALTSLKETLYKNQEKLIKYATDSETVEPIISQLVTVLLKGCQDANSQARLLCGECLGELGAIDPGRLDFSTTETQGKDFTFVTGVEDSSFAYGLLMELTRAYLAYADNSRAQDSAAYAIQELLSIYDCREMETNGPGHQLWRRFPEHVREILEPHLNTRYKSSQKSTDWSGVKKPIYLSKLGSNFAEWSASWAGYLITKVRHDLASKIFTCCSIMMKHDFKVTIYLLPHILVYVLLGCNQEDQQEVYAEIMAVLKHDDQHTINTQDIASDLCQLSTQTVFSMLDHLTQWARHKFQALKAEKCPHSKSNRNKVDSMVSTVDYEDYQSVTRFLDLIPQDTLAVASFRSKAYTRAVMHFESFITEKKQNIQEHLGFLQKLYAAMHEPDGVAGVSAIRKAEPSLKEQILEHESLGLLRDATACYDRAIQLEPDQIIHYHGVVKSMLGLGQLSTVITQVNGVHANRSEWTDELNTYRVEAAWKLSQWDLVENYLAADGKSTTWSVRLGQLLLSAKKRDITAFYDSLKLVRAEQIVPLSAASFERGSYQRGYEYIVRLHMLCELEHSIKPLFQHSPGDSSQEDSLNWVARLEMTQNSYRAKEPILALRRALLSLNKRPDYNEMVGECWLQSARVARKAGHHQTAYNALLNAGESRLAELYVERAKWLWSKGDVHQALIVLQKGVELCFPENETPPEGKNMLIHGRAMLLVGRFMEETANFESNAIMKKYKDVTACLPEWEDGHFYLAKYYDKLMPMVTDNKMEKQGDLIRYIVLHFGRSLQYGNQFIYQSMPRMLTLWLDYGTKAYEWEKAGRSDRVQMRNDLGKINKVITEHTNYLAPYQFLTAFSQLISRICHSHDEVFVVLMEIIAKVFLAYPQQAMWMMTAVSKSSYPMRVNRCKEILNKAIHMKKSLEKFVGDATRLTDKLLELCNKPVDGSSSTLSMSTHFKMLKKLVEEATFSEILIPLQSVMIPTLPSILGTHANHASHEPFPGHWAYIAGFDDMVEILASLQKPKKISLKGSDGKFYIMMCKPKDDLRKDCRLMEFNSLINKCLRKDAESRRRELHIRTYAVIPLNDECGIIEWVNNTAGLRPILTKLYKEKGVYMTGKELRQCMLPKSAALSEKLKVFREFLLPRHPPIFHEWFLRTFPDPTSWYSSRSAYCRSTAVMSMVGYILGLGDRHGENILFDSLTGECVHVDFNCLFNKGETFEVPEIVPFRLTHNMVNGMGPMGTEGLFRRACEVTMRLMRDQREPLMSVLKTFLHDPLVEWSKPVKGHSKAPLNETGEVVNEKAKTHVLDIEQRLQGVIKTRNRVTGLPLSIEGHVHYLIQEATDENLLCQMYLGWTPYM
T1 sequence (Q8WXE1 whole entry partner): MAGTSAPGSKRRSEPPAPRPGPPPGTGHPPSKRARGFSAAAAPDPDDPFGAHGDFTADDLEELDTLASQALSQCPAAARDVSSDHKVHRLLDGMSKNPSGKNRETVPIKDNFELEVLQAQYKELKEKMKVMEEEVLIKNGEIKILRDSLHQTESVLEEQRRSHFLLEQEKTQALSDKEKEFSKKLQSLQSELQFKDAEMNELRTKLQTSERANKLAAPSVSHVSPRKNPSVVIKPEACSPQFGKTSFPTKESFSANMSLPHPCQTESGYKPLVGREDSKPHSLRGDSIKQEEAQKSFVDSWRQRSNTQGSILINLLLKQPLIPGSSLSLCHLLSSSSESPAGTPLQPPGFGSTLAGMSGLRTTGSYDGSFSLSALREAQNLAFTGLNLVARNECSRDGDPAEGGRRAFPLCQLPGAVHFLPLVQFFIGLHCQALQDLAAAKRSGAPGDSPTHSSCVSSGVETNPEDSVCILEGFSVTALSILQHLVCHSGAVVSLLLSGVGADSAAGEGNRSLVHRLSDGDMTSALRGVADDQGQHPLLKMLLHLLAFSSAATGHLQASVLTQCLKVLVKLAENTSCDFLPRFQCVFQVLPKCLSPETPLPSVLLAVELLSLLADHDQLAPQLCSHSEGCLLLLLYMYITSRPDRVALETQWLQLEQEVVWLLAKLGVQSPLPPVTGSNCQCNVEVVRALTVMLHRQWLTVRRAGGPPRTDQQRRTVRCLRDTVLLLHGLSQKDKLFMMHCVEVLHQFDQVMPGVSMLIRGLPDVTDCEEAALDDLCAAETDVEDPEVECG

Kd (AsPC-1 lysate, read-out: KDapp) [µM]	SMILES	affinity to ATR over off-targets (Berzosertib: vs. all except ACVR2, Elimusertib: vs. PIK3C2A, Ceralasertib: vs. CDK7) [fold]
–	CNCc1ccc(-c2cc(-c3nc(-c4ccc(S(=O)(=O)C(C)C)cc4)cnc3N)on2)cc1 [Berzosertib]	> 10
0.318	Nc1nn2cc(F)cnc2c1C(=O)Nc1cncc(F)c1N1CCC(C(=O)N2CCN(C3COC3)CC2)CC1 [Gartisertib]	–
